Patent US10821065B2, “Peptide for inhibiting biofilms” (SEOUL NATIONAL UNIVERSITY R&DB FOUNDATION, priority 2017, dated 2020)

Assays:
[1] = system: Enterococcus faecalis biofilm; assay: Enterococcus faecalis biofilm formation on dentin sections, scanning electron microscope; format: cell-based; conditions: 5×10^6 CFU/ml; 10 μg/ml HBD3-C15, 25 μg/ml CH, 0.02% CHX, or combination; 37° C., 24 hours; FIG. 3
Procedure: (§1) To confirm whether the Streptococcus mutans biofilm inhibition through synergistic effects of HBD3-C15 and an existing dental therapeutic agent is reproduced in the formation of biofilms formed by other dental infectious bacteria, Enterococcus faecalis and Streptococcus gordonii were cultured in a BHI medium and a Todd Hewitt yeast (THY) medium, respectively, and then E. faecalis and S. gordonii were prepared at 5×10^6 CFU/ml and 1×10^8 CFU/ml, respectively, and treated, on the dentin sections, with 10 μg/ml of HBD3-C15, 25 μg/ml of CH, 0.02% CHX, or a combination thereof. After incubation at 37° C. for 24 hours, comparison of the degree of biofilm formation was conducted using a scanning electron microscope.

[2] = system: Streptococcus mutans biofilm; assay: Streptococcus mutans biofilm formation, 0.1% crystal violet staining; format: cell-based; conditions: 37° C., 24 hours; for S. mutans biofilm formation (crystal violet), single or co-treatment: 10 μg/ml HBD3-C15, 25 μg/ml CH, 0.02% CHX, or combination, FIG. 2A
Procedure: To confirm the effect of HBD3-C15 on a Streptococcus mutans biofilm, Streptococcus mutans was cultured in a Brain Heart Infusion (BHI) medium. The cultured Streptococcus mutans was prepared at 1×10^7 CFU/ml, and then 1% NaCl or 0.05% sucrose was added thereto to promote biofilm formation, followed by treatment with 50 μg/ml of HBD3-C15. After incubation at 37° C. for 24 hours, 0.1% crystal violet staining was performed for comparison of the degree of biofilm formation.
In addition, 0.05% sucrose was added to Streptococcus mutans, followed with treatment with HBD3-C15 at a concentration of 10 μg/ml, 30 μg/ml, or 50 μg/ml. After incubation at 37° C. for 24 hours, 0.1% crystal violet staining was performed for comparison of the degree of biofilm formation.
To determine whether HBD3-C15 is capable of inhibiting a biofilm by synergistic effects with calcium hydroxide (CH) or chlorohexidine (CHX), which is an existing dental therapeutic agent, Streptococcus mutans was cultured in a BHI medium and then prepared at 1×10^7 CFU/ml, and treated with 10 μg/ml of HBD3-C15, 25 μg/ml of CH, 0.02% CHX, or a combination thereof in the presence of 0.05% sucrose. After incubation at 37° C. for 24 hours, 0.1% crystal violet staining was performed for comparison of the degree of biofilm formation.

[3] = system: Streptococcus mutans biofilm; assay: Streptococcus mutans biofilm formation on human teeth dentin sections, scanning electron microscope; format: cell-based; conditions: 10 μg/ml HBD3-C15, 25 μg/ml CH, 0.02% CHX, or combination; 0.05% sucrose; 37° C., 24 hours; FIG. 2B
Procedure: In addition, human teeth dentin sections were prepared to represent an actual oral infection situation, 1×10^7 CFU/ml of Streptococcus mutans was treated, on the dentin sections, with 10 μg/ml of HBD3-C15, 25 μg/ml of CH, 0.02% CHX, or a combination thereof in the presence of 0.05% sucrose. After incubation at 37° C. for 24 hours, comparison of the degree of biofilm formation was conducted using a scanning electron microscope.

[4] = system: Streptococcus gordonii biofilm; assay: Streptococcus gordonii biofilm formation on dentin sections, scanning electron microscope; format: cell-based; conditions: 1×10^8 CFU/ml; 10 μg/ml HBD3-C15, 25 μg/ml CH, 0.02% CHX, or combination; 37° C., 24 hours; FIG. 3
Procedure: as §1

[5] = Tooth discoloration of treated dentin sections, photographed; set-up: species or system human; conditions: 30 μg/ml HBD3-C15, 0.002% CHX, 0.02% CHX, or combination (2% CHX positive control), 37° C., 7 days, FIG. 5
Procedure: According to previous papers, it has been reported that CHX, which is a typical dental therapeutic agent, causes side effects such as tooth discoloration. Thus, to confirm the effect of treatment with HBD3-C15 alone or a combination of HBD3-C15 and CHX on tooth discoloration, dentin sections were treated with 30 μg/ml of HBD3-C15, 0.002% CHX, 0.02% CHX, or a combination thereof, and 2% CHX was used as a positive control. Subsequently, the dentin sections were cultured at 37° C. for 7 days and photographed to observe the degree of tooth discoloration.

[6] = system: Streptococcus mutans biofilm; assay: Streptococcus mutans biofilm formation, confocal microscope; format: cell-based; conditions: HBD3-C15 at 10, 30 or 50 μg/ml; 0.05% sucrose; FIG. 1C

[Ca+2].[OH-].[OH-] [CH, calcium hydroxide]
E. faecalis biofilm formation on dentin sections (SEM), single or co-treatment [1]: inhibited | S. mutans biofilm formation (crystal violet), single or co-treatment ([2]; 0.05% sucrose): inhibited | S. mutans biofilm formation on dentin sections (SEM), single or co-treatment [3]: inhibited | S. gordonii biofilm formation on dentin sections (SEM), single or co-treatment [4]: inhibited

N=C(NCCCCCCNC(=N)NC(=N)Nc1ccc(Cl)cc1)NC(=N)Nc1ccc(Cl)cc1 [CHX, chlorohexidine]
E. faecalis biofilm formation on dentin sections (SEM), single or co-treatment [1]: inhibited | tooth discoloration [5]: induced by treatment with CHX alone in a concentration-dependent manner | S. mutans biofilm formation (crystal violet), single or co-treatment ([2]; 0.05% sucrose): inhibited | S. mutans biofilm formation on dentin sections (SEM), single or co-treatment [3]: inhibited | S. gordonii biofilm formation on dentin sections (SEM), single or co-treatment [4]: inhibited

G-K-C-S-T-R-G-R-K-C-C-R-R-K-K [HBD3-C15]
E. faecalis biofilm formation on dentin sections (SEM), single or co-treatment [1]: inhibited | S. mutans biofilm formation (crystal violet), single or co-treatment ([2]; 0.05% sucrose): inhibited | formation of Streptococcus mutans biofilm (crystal violet) ([2]; 50 μg/ml HBD3-C15, biofilm promoted by 0.05% sucrose, FIG. 1A): inhibited | formation of Streptococcus mutans biofilm (crystal violet) ([2]; 50 μg/ml HBD3-C15, biofilm promoted by 1% NaCl, FIG. 1A): inhibited | formation of Streptococcus mutans biofilm (crystal violet) ([2]; HBD3-C15 at 10, 30 or 50 μg/ml, 0.05% sucrose, FIG. 1B): inhibited in a concentration-dependent manner | formation of Streptococcus mutans biofilm (confocal microscope) [6]: inhibit formation of a biofilm in a concentration-dependent manner | S. mutans biofilm formation on dentin sections (SEM), single or co-treatment [3]: inhibited | S. gordonii biofilm formation on dentin sections (SEM), single or co-treatment [4]: inhibited
